Measurements as given in ChEMBL document CHEMBL1156829 (Proc Natl Acad Sci U S A, 2008).

Tests used:
[1] = NOVARTIS: Cytotoxicity against human hepatocellular carcinoma cell line (Huh7); assay type: toxicity, cell-based, Huh-7; details: Huh7 cells (hepatocellular carcinoma cell line)
Plasmodium falciparum [2] = test: NOVARTIS: Inhibition of Plasmodium falciparum 3D7 (drug-susceptible) proliferation in erythrocyte-based infection assay; assay type: functional, organism-based; details: Plasmodium falciparum, 3D7
Plasmodium falciparum [3] = test: NOVARTIS: Inhibition of Plasmodium falciparum W2 (drug-resistant) proliferation in erythrocyte-based infection assay; assay type: functional, organism-based; details: Plasmodium falciparum, W2; read-out: EC50

Compound	CC50 [1] [µM]	EC50 (Plasmodium falciparum [2]) [µM]	EC50 (Plasmodium falciparum [3]) [µM]
CCc1c(C#N)c(N)nc(SCC(=O)c2ccc(C)cc2C)c1C#N	> 100	0.308	0.196
CCOC(=O)c1cc(-c2ccc(OC)cc2)n(CCC(=O)NCc2ccc(OC)cc2)c1C	> 100	0.987	0.781
O=C(COC(=O)c1ccccc1O)c1ccc(Br)cc1	> 10	1.54	1.82
CCOc1ccc(N=C2NC(=O)S/C2=C2/C(=O)Nc3ccc(Br)cc32)cc1	> 10	> 1.25	> 0.72
COc1ccc(C2CC(=O)C3=C(C2)NC(C)=C(C(=O)OC(C)C)C3c2cccc(Cl)c2Cl)cc1OC (configuration not stated)	> 87.3	0.0676	0.0181
CCSC(Cl)=C(NC(=O)c1ccccc1)[P+](c1ccccc1)(c1ccccc1)c1ccccc1.[O-][Cl+3]([O-])([O-])[O-]	32.2	0.123	0.0455
O=C(Nc1ccc(-c2cn3cccnc3n2)cc1)c1ccccc1I	> 100	> 12.5	2.62
COCCOC(=O)C1=C(C)NC2=C(C(=O)CC(c3ccc(OC)c(OC)c3)C2)C1c1ccccc1F (configuration not stated)	> 100	0.082	0.0118
CCOc1ccc(Nc2ccnc3cc(Cl)ccc23)cc1	> 100	0.956	0.986
COc1cccc(CCN2Cc3ccc(C(=O)NC(C)C)cc3N=C2c2ccc(C)cc2)c1	> 10	0.938	0.68
COc1ccccc1CN1CCc2nc(N3CCCCC3)sc2C1	> 10	0.454	0.277
COc1ccc(C2CC(c3cccs3)=NN2C(=O)CSc2nnc(CNC(=O)c3cccs3)n2-c2cccc(C)c2)cc1 (configuration not stated)	> 100	10.3	1.61
C[n+]1oc(/C=C/c2ccccc2)cc1/C=C/c1ccccc1	> 10	0.11	0.0888
CC(C)c1ccc(C=NNC(=O)c2ccccc2O)cc1	> 10	> 1.25	1.68
CC(C)CNC(=O)c1cnc(NCCCN2CCCC2)nc1NC1CCCC1	> 10	0.774	> 1.25
c1ccc(CCCNc2ccnc3cc4ccccc4cc23)cc1	4.14	0.199	0.209
CCc1ccccc1NC(=O)C1c2ccccc2C(=O)N(CC(C)C)C1c1cccs1 (configuration not stated)	> 97.2	0.364	0.27
CCOC(=O)c1cnc2ccc(OC)cc2c1Nc1ccc(N2CCN(C)CC2)cc1	> 10	1.09	> 1.7
Cc1ccc2c(c1)C1CN(C)CCC1N2C(=O)c1cc2ccccc2o1 (configuration not stated)	> 10	> 1.04	> 0.922
CCCCc1ccc(C(=O)N(CCC(=O)Nc2nnc(-c3ccc(OC)cc3)s2)CCc2ccc(OC)c(OC)c2)cc1	> 10	1.24	> 0.757
Cc1cc2c(cc1C)-c1c(ssc1=Nc1cccc(C)c1C)C(C)(C)N2	> 100	8.59	1.62
COc1ccc(-c2cc3c(nn2)-c2ccccc2C3=O)cc1	65.8	3.84	1.64
Cc1cc(C)c(NC(=S)N(CCCN2CCCCC2)Cc2cccs2)c(C)c1	> 10	> 1.54	0.179

Compound	CC50 [1] [µM]	EC50 (Plasmodium falciparum [2]) [µM]	EC50 (Plasmodium falciparum [3]) [µM]
CCOC(=O)C1=C(C)NC2=C(C(=O)CC(c3ccc(OC)c(OC)c3)C2)C1c1ccccc1C (configuration not stated)	> 100	0.134	0.0274
CS(=O)(=O)N(CCc1ccccc1)CC(O)CN1CCC(CNC(=O)NC(c2ccccc2)c2ccccc2)CC1 (configuration not stated)	> 10	> 1.53	1.02
Cc1[nH]n(-c2ccccc2)c(=O)c1C(=O)CN(C(=O)c1ccc2c(c1)OCO2)C(C)C	> 10	> 0.469	> 1.25
CN1CCc2c(sc3nc(SCc4ccccc4)n(-c4ccccc4)c(=O)c23)C1	> 100	1.77	0.67
Fc1ccc(C(CCNc2ncnc3c2[nH]c2ccccc23)c2ccco2)cc1 (configuration not stated)	20.2	0.216	0.419
CCN(CC)CCCC(C)NC(=O)CSc1nc2ccccc2c(=O)n1-c1cccc(Cl)c1 (configuration not stated)	> 10	> 1.25	> 1.07
CC(C)=CCCC(C)=CCCC(C)NCCN1CCNCC1 (configuration not stated)	6.69	0.411	0.14
Cc1ccc2[nH]c3c(NCCCN(C)C)ncnc3c2c1	42	0.0777	0.355
CC(C)(C)C(=O)Nc1ccc(C23CC4CC(CC(c5ccccc5)(C4)C2)C3)cc1	> 100	0.716	> 12.5
CC[n+]1cccc2ccc3cccnc3c21	> 100	0.553	0.257
COCCN(CC(O)CNC(=O)c1ccc2ccccc2n1)S(=O)(=O)c1c(C)noc1C (configuration not stated)	> 10	> 0.09	> 0.895
O=C(NC(=CC=Cc1ccccc1)C(=O)N1CCCCC1)c1ccc([N+](=O)[O-])cc1	> 100	8.29	0.392
COc1ccc(NC(=O)NCc2cccn2Cc2ccc(F)cc2)cc1OC	> 10	1.07	0.661
CC(=O)Nc1ccc(NC2=C(N3CCCCC3)C(=O)c3ccccc3C2=O)cc1	> 100	0.0528	0.111
C=CCNC(=O)c1ccc2c(c1)N=CN(CCOc1ccccc1)C2	> 10	0.441	0.419
COc1cc2c(Nc3ccc(Br)cc3F)ncnc2cc1OCC1CCN(C)CC1 [VANDETANIB]	37.2	1.92	1.6
CCCCCN(CC(=O)Nc1cc(C(C)(C)C)nn1-c1ccc(Cl)c(Cl)c1)C(=O)c1cccc(OC)c1	> 10	0.597	0.992
COc1ccc(C2C(C(=O)Nc3cc(Cl)c(OC)cc3OC)c3ccccc3C(=O)N2C)cc1 (configuration not stated)	> 100	0.378	0.333
COc1cc(NC2=CC(=O)C(=O)c3ccccc32)c(OC)cc1Cl	11.2	0.293	0.687
COc1ccc(Cl)cc1NC(=O)CSC1=C(C#N)C(c2ccccc2)C(C(=O)Nc2ccccc2)=C(C)N1 (configuration not stated)	> 100	3.76	1.91
CN1CCc2cc3c(c4c2C1Cc1ccccc1-4)OCO3 (configuration not stated) [ROEMERINE]	22.3	0.0931	0.112
COc1ccc(S(=O)(=O)N=C2C=C(Nc3ccccc3)C(=O)c3ccccc32)cc1	12	0.0933	0.122
O=C(Nc1ccc2nc3n(c(=O)c2c1)CCCCC3)C(=O)N1CCN(c2ccccc2)CC1	> 100	0.133	0.0308

Compound	CC50 [1] [µM]	EC50 (Plasmodium falciparum [2]) [µM]	EC50 (Plasmodium falciparum [3]) [µM]
CN(CCCNc1ccnc2cc(Cl)ccc12)C(=O)CCc1ccccc1	> 12.1	0.136	0.187
Cc1cc(N(C)C)cc(C)[n+]1OC(=O)N(c1ccccc1)c1ccccc1	> 10	> 1.49	2
COc1cc(C(=O)N2C(C(=O)Nc3ccccc3F)CSC2c2ccc(C(C)(C)C)cc2)cc(OC)c1OC (configuration not stated)	> 2.31	1.04	1.28
Oc1ccc(Br)cc1CN1CCN(c2ccccn2)CC1	34.6	3.17	0.438
Cc1ccc(C)c(Nc2nc(NCc3ccccc3)c3ccccc3n2)c1	14.5	0.246	0.0902
Cc1ccn2c(NC(C)(C)CC(C)(C)C)c(-c3ccccc3OC(=O)N(C)C)nc2c1	> 10	0.576	0.0285
Cc1ccccc1/C=C1\SC(=Nc2ccccc2)NC1=O	> 100	1.06	> 12.5
O=C(CN1C(=O)C2C3CCC(C3)C2C1=O)N1CCCC(c2ncncc2-c2ccncc2)C1 (configuration not stated)	> 10	0.246	> 1.25
COc1cccc(C(=O)N(CCCC(C)Nc2cc(OC)cc3cccnc23)Cc2ccc(F)cc2)c1 (configuration not stated)	3.73	0.666	0.154
C(=NNc1nc2ccccc2[nH]1)c1ccc2c(c1)OCO2	> 100	0.184	0.289
C[n+]1ccccc1/C=C/C1=C(c2ccccc2)Oc2ccccc2O1	14.9	0.133	0.249
O=C1NC(=O)C(Cc2ccc(S(=O)(=O)N3CCN(c4ccccc4)CC3)cc2)S1 (configuration not stated)	> 100	0.79	5.43
CCN1C(=O)N(CC)C(NNC(N)=S)C1NNC(N)=S (configuration not stated)	> 100	0.123	0.151
Clc1ccc(NCn2nnc3ccccc32)nc1	> 100	> 8.2	1.69
COc1ccccc1-n1c(C(C)N(C)C(=O)Nc2ccccc2F)nc2ccccc2c1=O (configuration not stated)	> 12.4	0.162	0.0623
CC(C)(C)c1ccc(O)c(CNC2CCCCC2)c1	60.1	0.251	0.0678
O=C(NCCCCNc1ccnc2cc(Cl)ccc12)c1cccc(C(F)(F)F)c1	> 10	0.171	< 0.0138
CC(C)N(CC(=O)Nc1cc(C(C)(C)C)nn1-c1ccc(Cl)c(Cl)c1)C(=O)c1ccc(C(F)(F)F)cc1	> 10	0.845	1.33
CC(C)(C)NC(=S)NN=CC=NNC(=S)NC(C)(C)C	> 100	0.21	0.0569
COc1ccc(CCNc2nc(NCCCn3ccnc3)ncc2C(=O)NCc2ccccc2)cc1OC	> 10	1	> 1.25
COC(=O)NCCNC(=O)COC(c1cccs1)c1cccnc1Cl (configuration not stated)	> 10	0.185	0.17
COc1ccc(N=C2NC(=O)/C(=C\c3ccc(N(C)C)cc3)S2)cc1	> 10	1.02	> 1.68
COC(=O)CC(NC(=O)c1ccc(C)cc1)c1ccc2c(c1)OCO2 (configuration not stated)	15	> 1.68	0.206
